These are literature values, as cited in article PMC5760531, “Action Potential Recording and Pro-arrhythmia Risk Analysis in Human Ventricular Trabeculae” (Frontiers in Physiology, 2018).

For series [1] the following is noted: cited from earlier work.
In another series the test system is hERG. Particulars: read-out: IC50 for hERG; previous experiments; ref Qu and Vargas, 2015; cited from earlier work. A general note: hERG is a cardiac potassium channel; its block is linked to QT prolongation.
In the next series the test system is Nav1.5. On the set-up: method as in Qu and Vargas, 2015. Conditions: previous experiments; ref Qu and Vargas, 2015; cited from earlier work.

Each structure is given as a SMILES string.

One may read the IC50 as the midpoint of a concentration-inhibition curve. With `Nc1nnc(-c2cccc(Cl)c2Cl)c(N)n1` [LAMOTRIGINE, Lamotrigine], the “Free ETPC” value in series [1] (human free (unbound) effective therapeutic plasma concentration used to calculate multiples) was 17 µM. The free therapeutic exposure result in series [1] (human, ref Dixon et al., 2008) is listed as “approximately 17 μM”. Besides, the IC50 with hERG is 110 µM; with Nav1.5, 40 µM.
